The values that follow come from patent US20080161366A1, “AMINOALKYL SUBSTITUTED ARYL SULFAMIDE DERIVATIVES AND METHODS OF THEIR USE” (Wyeth, priority 2006, published 2008).

Where a name gives a salt, the structure may show the parent alone.

As usually defined, the IC50 is the point on the concentration scale where inhibition reaches its midpoint.

human norepinephrine transporter (hNET), sequence (P23975 whole entry): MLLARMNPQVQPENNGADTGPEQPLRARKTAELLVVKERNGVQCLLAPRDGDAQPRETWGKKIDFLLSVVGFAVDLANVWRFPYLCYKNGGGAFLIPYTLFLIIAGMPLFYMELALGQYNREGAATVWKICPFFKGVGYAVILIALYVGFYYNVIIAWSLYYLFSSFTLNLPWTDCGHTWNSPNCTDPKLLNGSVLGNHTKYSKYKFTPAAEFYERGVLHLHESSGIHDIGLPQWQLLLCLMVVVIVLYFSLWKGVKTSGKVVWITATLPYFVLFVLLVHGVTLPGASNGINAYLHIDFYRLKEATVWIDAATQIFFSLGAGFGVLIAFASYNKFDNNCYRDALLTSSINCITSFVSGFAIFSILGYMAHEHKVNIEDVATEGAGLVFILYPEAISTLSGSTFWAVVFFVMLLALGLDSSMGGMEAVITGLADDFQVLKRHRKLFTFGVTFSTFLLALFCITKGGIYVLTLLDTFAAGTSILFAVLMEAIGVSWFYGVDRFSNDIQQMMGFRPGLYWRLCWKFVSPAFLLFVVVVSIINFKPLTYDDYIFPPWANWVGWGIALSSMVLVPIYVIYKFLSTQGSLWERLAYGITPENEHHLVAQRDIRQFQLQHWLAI

The assay addresses human norepinephrine transporter (hNET) (Homo sapiens, UniProt P23975). The assay can be described thus: hNET uptake, Protocol B: cell based norepinephrine reuptake assay using recombinant hNET (MDCK-Net6 cells). The conditions noted are these: NE uptake (Protocol B) IC50 (nM), MDCK-Net6 cells, 3H-NE 16 nM.
Consider `CNCCCN1c2ccccc2N(c2ccc(Cl)cc2)S1(=O)=O` [Example 1, 3-[3-(4-chlorophenyl)-2,2-dioxido-2,1,3-benzothiadiazol-1(3H)-yl]-N-methylpropan-1-amine], for which the IC50 stood at 20.5 nM.
As to `CNCCCN1c2ccccc2N(c2ccccc2)S1(=O)=O` [Example 5, 3-(2,2-dioxido-3-phenyl-2,1,3-benzothiadiazol-1(3H)-yl)-N-methylpropan-1-amine], the IC50 was determined as 2.63 nM.
In the case of `CNCCCN1c2ccccc2N(c2ccc(F)cc2)S1(=O)=O` [Example 6, 3-[3-(4-fluorophenyl)-2,2-dioxido-2,1,3-benzothiadiazol-1(3H)-yl]-N-methylpropan-1-amine], the IC50 came out at 6.87 nM.
For the compound `CNCCCN1c2ccccc2N(c2ccc(OC)cc2)S1(=O)=O` [Example 7, 3-[3-(4-methoxyphenyl)-2,2-dioxido-2,1,3-benzothiadiazol-1(3H)-yl]-N-methylpropan-1-amine], the concentration for half-maximal inhibition (IC50) was 1780 nM.
Consider `CNCCCN1c2ccccc2N(c2ccc(C)cc2)S1(=O)=O` [Example 8, N-methyl-3-[3-(4-methylphenyl)-2,2-dioxido-2,1,3-benzothiadiazol-1(3H)-yl]propan-1-amine], for which the IC50 was found to be 35.7 nM.
For `CNCCCN1c2ccccc2N(c2ccccc2OC)S1(=O)=O` [Example 9, 3-[3-(2-methoxyphenyl)-2,2-dioxido-2,1,3-benzothiadiazol-1(3H)-yl]-N-methylpropan-1-amine] the value was 12.6 nM; for `CNCCCN1c2ccccc2N(c2cccc(F)c2)S1(=O)=O` [Example 12, 3-[3-(3-fluorophenyl)-2,2-dioxido-2,1,3-benzothiadiazol-1(3H)-yl]-N-methylpropan-1-amine], 12.2 nM.
Turning to `CNCCCN1c2ccccc2N(c2cccc3ccccc23)S1(=O)=O` [Example 13, N-methyl-3-[3-(1-naphthyl)-2,2-dioxido-2,1,3-benzothiadiazol-1(3H)-yl]propan-1-amine], the 50% inhibitory concentration (IC50) was 534 nM.
For `CNCCCN1c2ccccc2N(c2ccc3ccccc3c2)S1(=O)=O` [Example 14, N-methyl-3-[3-(2-naphthyl)-2,2-dioxido-2,1,3-benzothiadiazol-1(3H)-yl]propan-1-amine] the value was 2620 nM; for `CNCCCN1c2ccccc2N(c2cccc(C)c2)S1(=O)=O` [Example 15, N-methyl-3-[3-(3-methylphenyl)-2,2-dioxido-2,1,3-benzothiadiazol-1(3H)-yl]propan-1-amine], 96.2 nM.
Consider `CNCCCN1c2ccccc2N(c2ccccc2C)S1(=O)=O` [Example 16, N-methyl-3-[3-(2-methylphenyl)-2,2-dioxido-2,1,3-benzothiadiazol-1(3H)-yl]propan-1-amine], for which the IC50 was determined as 7.06 nM.
Turning to `CNCCCN1c2ccccc2N(c2cccc(OC)c2)S1(=O)=O` [Example 17, 3-[3-(3-methoxyphenyl)-2,2-dioxido-2,1,3-benzothiadiazol-1(3H)-yl]-N-methylpropan-1-amine], the IC50 came out at 10.8 nM.
As to `CNCCCCN1c2ccccc2N(c2ccccc2)S1(=O)=O` [Example 18, 4-(2,2-dioxido-3-phenyl-2,1,3-benzothiadiazol-1(3H)-yl)-N-methylbutan-1-amine], the IC50 stood at 0.3 nM.
As to `CNCCCN1c2cccnc2N(c2ccccc2)S1(=O)=O` [Example 24, 3-(2,2-dioxido-3-phenyl[1,2,5]thiadiazolo[3,4-b]pyridin-1(3H)-yl)-N-methylpropan-1-amine], the IC50 worked out at 60.9 nM.
`CNCCCN1c2cnccc2N(c2ccccc2)S1(=O)=O` [Example 25, 3-(2,2-dioxido-1-phenyl[1,2,5]thiadiazolo[3,4-c]pyridin-3(1H)-yl)-N-methylpropan-1-amine]: the IC50 came to 146 nM.
For `CNCCCN1c2ccccc2N(c2ccc(C)cn2)S1(=O)=O` [Example 26, N-methyl-3-[3-(5-methylpyridin-2-yl)-2,2-dioxido-2,1,3-benzothiadiazol-1(3H)-yl]propan-1-amine hydrochloride] the value was 57.1 nM.
For `CNCCCN1c2ccccc2N(c2ncccc2C)S1(=O)=O` [Example 27, N-methyl-3-[3-(3-methylpyridin-2-yl)-2,2-dioxido-2,1,3-benzothiadiazol-1(3H)-yl]propan-1-amine hydrochloride] the value was 11.7 nM; for `CNCCCN1c2ccccc2N(c2ccc(OC)nc2)S1(=O)=O` [Example 28, 3-[3-(6-methoxypyridin-3-yl)-2,2-dioxido-2,1,3-benzothiadiazol-1(3H)-yl]-N-methylpropan-1-amine hydrochloride], 1900 nM.
As for `CCc1ccc(N2c3ccccc3N(CCCNC)S2(=O)=O)nc1` [Example 29, 3-[3-(5-ethylpyridin-2-yl)-2,2-dioxido-2,1,3-benzothiadiazol-1(3H)-yl]-N-methylpropan-1-amine hydrochloride], the IC50 worked out at 434 nM.
Then `CNCCCN1c2ccccc2N(c2cc(C)ccn2)S1(=O)=O` [Example 30, N-methyl-3-[3-(4-methylpyridin-2-yl)-2,2-dioxido-2,1,3-benzothiadiazol-1(3H)-yl]propan-1-amine hydrochloride], with 15.3 nM; and `CNCCCN1c2ccccc2N(c2ccccn2)S1(=O)=O` [Example 31, 3-(2,2-dioxido-3-pyridin-2-yl-2,1,3-benzothiadiazol-1(3H)-yl)-N-methylpropan-1-amine hydrochloride], with 23.6 nM.
As for `CNCCCN1c2ccccc2N(c2cccc(C)n2)S1(=O)=O` [Example 32, N-methyl-3-[3-(6-methylpyridin-2-yl)-2,2-dioxido-2,1,3-benzothiadiazol-1(3H)-yl]propan-1-amine hydrochloride], the 50% inhibitory concentration (IC50) is 192 nM.
In the case of `CNCCCN1c2ccccc2N(c2cnccc2C)S1(=O)=O` [Example 33, N-methyl-3-[3-(4-methylpyridin-3-yl)-2,2-dioxido-2,1,3-benzothiadiazol-1(3H)-yl]propan-1-amine hydrochloride], the IC50 came to 282 nM.
On to `CNCCCN1c2ccccc2N(c2cccnc2)S1(=O)=O` [Example 34, 3-(2,2-dioxido-3-pyridin-3-yl-2,1,3-benzothiadiazol-1(3H)-yl)-N-methylpropan-1-amine hydrochloride], for which the IC50 was determined as 85 nM.
As for `CNCCCN1c2cc(F)ccc2N(c2ccccc2)S1(=O)=O` [Example 35, 3-(6-fluoro-2,2-dioxido-3-phenyl-2,1,3-benzothiadiazol-1(3H)-yl)-N-methylpropan-1-amine], the IC50 was 20.6 nM.
In the case of `CNCCCN1c2ccc(Cl)cc2N(c2ccccc2)S1(=O)=O` [Example 36, 3-(5-Chloro-2,2-dioxido-3-phenyl-2,1,3-benzothiadiazol-1(3H)-yl)-N-methylpropan-1-amine], the IC50 turned out to be 11.3 nM.
`CNCCCN1c2cc(Br)ccc2N(c2ccccc2)S1(=O)=O` [Example 37, 3-(6-bromo-2,2-dioxido-3-phenyl-2,1,3-benzothiadiazol-1(3H)-yl)-N-methylpropan-1-amine]: the IC50 came out at 2360 nM.
Regarding `CNCCCN1c2ccc(C)cc2N(c2ccccc2)S1(=O)=O` [Example 38, N-methyl-3-(5-methyl-2,2-dioxido-3-phenyl-2,1,3-benzothiadiazol-1(3H)-yl)propan-1-amine], the IC50 was 13.9 nM.
On to `CNCCCN1c2c(F)cccc2N(c2ccccc2)S1(=O)=O` [Example 39, 3-(7-fluoro-2,2-dioxido-3-phenyl-2,1,3-benzothiadiazol-1(3H)-yl)-N-methylpropan-1-amine], for which the concentration for half-maximal inhibition (IC50) was found to be 29.3 nM.
Turning to `CNCCCN1c2cc(C)ccc2N(c2ccccc2)S1(=O)=O` [Example 40, N-methyl-3-(6-methyl-2,2-dioxido-3-phenyl-2,1,3-benzothiadiazol-1(3H)-yl)propan-1-amine], the 50% inhibitory concentration (IC50) came out at 252 nM.
On to `CNCCCN1c2cccc(F)c2N(c2ccccc2)S1(=O)=O` [Example 41, 3-(4-fluoro-2,2-dioxido-3-phenyl-2,1,3-benzothiadiazol-1(3H)-yl)-N-methylpropan-1-amine], for which the IC50 was 2.41 nM.
For `CNCCCN1c2c(F)cccc2N(c2cccc(F)c2)S1(=O)=O` [Example 42, 3-[7-fluoro-3-(3-fluorophenyl)-2,2-dioxido-2,1,3-benzothiadiazol-1(3H)-yl]-N-methylpropan-1-amine] the value was 86.3 nM; for `CNCCCN1c2cc(C#N)ccc2N(c2ccccc2)S1(=O)=O` [Example 43, 3-[3-(methylamino)propyl]-1-phenyl-1,3-dihydro-2,1,3-benzothiadiazole-5-carbonitrile 2,2-dioxide], 1320 nM.
For `CNCCCN1c2ccc(F)cc2N(c2ccccc2)S1(=O)=O` [Example 44, 3-(5-fluoro-2,2-dioxido-3-phenyl-2,1,3-benzothiadiazol-1(3H)-yl)-N-methylpropan-1-amine], the half-inhibitory concentration (IC50) was 4.26 nM.
`CNCCCN1c2ccccc2N(c2cccc(F)c2F)S1(=O)=O` [Example 46, 3-[3-(2,3-difluorophenyl)-2,2-dioxido-2,1,3-benzothiadiazol-1(3H)-yl]-N-methylpropan-1-amine hydrochloride]: the concentration for half-maximal inhibition (IC50) is 4.84 nM.
Consider `CNCCCN1c2ccccc2N(c2cc(F)cc(F)c2)S1(=O)=O` [Example 47, 3-[3-(3,5-difluorophenyl)-2,2-dioxido-2,1,3-benzothiadiazol-1(3H)-yl]-N-methylpropan-1-amine hydrochloride], for which the IC50 amounted to 2.73 nM.
In the case of `CNCCCN1c2ccccc2N(c2cc(F)ccc2F)S1(=O)=O` [Example 48, 3-[3-(2,5-difluorophenyl)-2,2-dioxido-2,1,3-benzothiadiazol-1(3H)-yl]-N-methylpropan-1-amine hydrochloride], the half-maximal inhibitory concentration (IC50) is 2.78 nM.
Then `CNCCCN1c2ccccc2N(c2cccc(OC(F)(F)F)c2)S1(=O)=O` [Example 49, 3-{2,2-dioxido-3-[3-(trifluoromethoxy)phenyl]-2,1,3-benzothiadiazol-1(3H)-yl}-N-methylpropan-1-amine hydrochloride], with 147 nM.
With `CNCCCN1c2ccccc2N(c2ccccc2OC(F)(F)F)S1(=O)=O` [Example 50, 3-{2,2-dioxido-3-[2-(trifluoromethoxy)phenyl]-2,1,3-benzothiadiazol-1(3H)-yl}-N-methylpropan-1-amine hydrochloride], the IC50 turned out to be 190 nM.
